Experimental findings from patent US5011947A, “Antihypercholesterolemic alkylene compounds” (Bristol-Myers, priority 1990, dated 1991) are described below.

Molecules are shown by their SMILES. Structures can show the parent of a compound that is named as a salt.

One assay has as its system Isolated Hepatocyte Cholesterol Biosynthesis. Nature of the assay: Test B: Isolated Hepatocyte Cholesterol Biosynthesis Assay. The class given is cell-based, male Wistar rats. Particulars: freshly isolated rat hepatocytes, 10 min preincubation, 60 minutes at 37°, pH 7.35, incorporation of 3H or 14C into sterols, read-out: IC50, Inhibition of Isolated Hepatocyte Cholesterol Biosynthesis. The procedure: Test B: Isolated Hepatocyte Cholesterol Biosynthesis Assay:
Intact parenchymal hepatocytes were isolated from male Wistar rats (180-280 g) fed cholestyramine containing or normal diet, using the collagenase perfusion method essentially as described by Seglen, in Methods in Cell Biology (D. Prescott, ed.) Vol. 13, pp. 29-83, Academic Press, New York (1976). Cell preparations were used only when viability (trypan blue exclusion) exceeded 90%. Cholesterol biosynthesis was determined as the incorporation by hepatocytes of ^3 H from [^3 H]-water into total (cellular plus medium) 3β-hydroxy sterols as per Ingebritsen, et al., J. Biol. Chem., 254, 9986-9989 (1979). Hepatocyte sterols and lipids were isolated by a modification of the methods described by Kates, in Techniques in Lipidology. (M. Kates, ed.), pp. 349, 360-363, North Holland Publ. Co., Amsterdam, 1972. To isolate sterols, cells are extracted with methanol:chloroform:water (2:1:0.8), the chloroform phase is separated and extracted with benzene to remove traces of water, then dried under nitrogen. The residue is saponified at 75° C. with 0.30 N NaOH in methanol:water (9:1). […] The ^3 H-labelled sterols are quantified by liquid scintillation and corrected for counting efficiency. […]
With `CC[C@H](C)C(=O)O[C@H]1C[C@@H](C)C=C2C=C[C@H](C)[C@H](CC[C@@H]3C[C@@H](O)CC(=O)O3)[C@H]21` [Mevinolin (Lovastatin), reference compound], the IC50 (usually the concentration that gives 50% inhibition) was found to be 0.046 ± 0.026 µM.
Regarding `CC(C)C(C=C[C@@H](O)C[C@@H](O)CC(=O)O)=C(c1ccc(F)cc1)c1ccc(F)cc1` (relative stereo) [Example 8, Erythro-9,9-bis(4-fluorophenyl)-3,5-dihydroxy-8-(1-methylethyl)-6,8-nonadienoic acid sodium salt], the IC50 came to 0.027 µM.

The next assay has as its target T1, rat liver HMG-CoA reductase (Rattus norvegicus, UniProt P51639).
T1 construct: from tissue; host or cells: rat liver microsomes
T1 sequence (P51639 1-887): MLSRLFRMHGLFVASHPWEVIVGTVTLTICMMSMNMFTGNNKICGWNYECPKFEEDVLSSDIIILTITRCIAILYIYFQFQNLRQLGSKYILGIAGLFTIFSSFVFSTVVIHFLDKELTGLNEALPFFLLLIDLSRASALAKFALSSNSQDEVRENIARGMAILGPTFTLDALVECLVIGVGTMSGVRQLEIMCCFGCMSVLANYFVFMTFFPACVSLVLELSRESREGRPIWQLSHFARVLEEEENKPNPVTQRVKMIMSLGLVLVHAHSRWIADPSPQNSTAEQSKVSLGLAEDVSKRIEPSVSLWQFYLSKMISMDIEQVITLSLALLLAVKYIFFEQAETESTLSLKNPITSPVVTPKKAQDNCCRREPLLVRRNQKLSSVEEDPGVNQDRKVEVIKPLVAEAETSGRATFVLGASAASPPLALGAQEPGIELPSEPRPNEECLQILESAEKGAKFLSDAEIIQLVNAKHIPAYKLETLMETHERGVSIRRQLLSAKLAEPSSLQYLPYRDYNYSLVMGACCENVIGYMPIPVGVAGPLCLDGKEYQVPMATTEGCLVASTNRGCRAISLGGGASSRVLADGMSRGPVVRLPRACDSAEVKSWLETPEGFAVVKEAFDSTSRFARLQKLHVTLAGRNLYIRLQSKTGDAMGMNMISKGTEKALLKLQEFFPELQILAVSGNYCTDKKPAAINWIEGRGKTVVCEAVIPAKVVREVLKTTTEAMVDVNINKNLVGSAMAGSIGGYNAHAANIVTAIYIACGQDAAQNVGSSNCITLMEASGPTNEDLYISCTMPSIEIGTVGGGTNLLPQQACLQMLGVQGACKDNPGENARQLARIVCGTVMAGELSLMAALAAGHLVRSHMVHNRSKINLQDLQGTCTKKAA
Nature of the assay: Test A: In Vitro Inhibition of Microsomal HMG-CoA Reductase. Type of assay: biochemical. Particulars: intact, fully activated microsomal form of rat liver enzyme; [3-14C]-HMG-CoA 0.33 mM; NADPH 3.0 mM; pH 7.2; at least 4 dilutions in duplicate. As for the experimental part:
Test A: In Vitro Inhibition of Microsomal HMG-CoA Reductase:
The intact, fully activated microsomal form of rat liver HMG-CoA reductase (subunit MW ca 100,000 daltons) was prepared as described by Parker, et al., Biochem. Biophys. Res. Commun., 125, 629-635 (1984), and used as the source of enzyme for assays. HMG-CoA reductase activity was determined essentially by the method of Shapiro, et al., Biochem. Biophys. Acta., 370. 369-377 (1974), with modifications as described by Ingebritsen and Gibson, Meth. Enzymol. 71. 486-497 (1981) with the exception that the internal standard ^3 H-mevalonolactone is added after termination of the assay. In this procedure, the enzyme is assayed by measuring the formation of product, ^14 C-mevalonate, from the substrate, [3-^14 C]-HMG-CoA, in the presence of NADPH. The ^14 C-mevalonate is converted to its lactone and isolated by silica thin-layer chromatography (Whatman LK5D, developed in 50:50 benzene:acetone) in the presence of ^3 H-mevalonolactone as an internal standard. Assays were conducted under conditions in which product formation was linear with respect to time and enzyme concentration.
To measure reductase inhibition, test compounds dissolved in water or dimethylsulfoxide and diluted in buffer A (50 mM imidazole-HCl, 250 mM NaCl, 1 mM EDTA, 1 mM EGTA, 5 mM DTT, 20 μM leupeptin, pH =7.2) were incubated with aliquots of microsomes (80-160 μg protein in buffer A) followed by addition of d,l-[3-^14 C]-HMG-CoA (0.33 mM, 2.0 dpm/picomole) and NADPH (3.0 mM). The 50 percent inhibitory concentration IC50) for each compound in Table 1 was calculated from the linear regression line of the percent decrease (from control) in enzyme activity vs. log concentration of inhibitor, determined using at least 4 dilutions of each test compound assayed in duplicate.
The compound `CC(C)(C)C(C=C[C@@H](O)C[C@@H](O)CC(=O)O)=C(c1ccc(F)cc1)c1ccc(F)cc1` (relative stereo) [Example 42, Erythro-9,9-bis(4-fluorophenyl)-3,5-dihydroxy-8-(1,1-dimethylethyl)-6,8-nonadienoic acid sodium salt] showed an IC50 of 0.5 µM.
Same read-out and setting: to `CCC(C=C[C@@H](O)C[C@@H](O)CC(=O)O)=C(c1ccc(F)cc1)c1ccc(F)cc1` (relative stereo) [Example 59, Erythro-8-ethyl-9,9-bis(4-fluorophenyl)-3,5-dihydroxy-6,8-non adienoate sodium salt] belongs 0.41 µM.
For the compound `O=C(O)C[C@H](O)C[C@H](O)C=CC(=C(c1ccc(F)cc1)c1ccc(F)cc1)C1CC1` (relative stereo) [Example 51, Erythro-8-cyclopropyl-9,9-bis(4-fluorophenyl)-3,5-dihydroxy-6,8-nonadienoicacid sodium salt], inhibition was half-maximal at 0.45 µM (IC50).
Still for that read-out and setting: to `O=C(O)C[C@H](O)C[C@H](O)C=CC(=C(c1ccc(F)cc1)c1ccc(F)cc1)C(F)(F)F` (relative stereo) [Example 73, Erythro9,9-bis(4-fluorophenyl)-3,5-dihydroxy-8-trifluoromethyl-6,8-nonadienoic acid sodium salt] belongs 1.58 µM.
On the same count and under the same terms, to `CC(C)C(C=C[C@@H](O)C[C@@H](O)CC(=O)O)=C(c1ccc(F)cc1)c1ccc(F)cc1` (relative stereo) [Example 8, Erythro-9,9-bis(4-fluorophenyl)-3,5-dihydroxy-8-(1-methylethyl)-6,8-nonadienoic acid sodium salt] belongs 0.265 µM.
